# According to patent US9421187B2, “Phytocannabinoids for use in the treatment of intestinal inflammatory diseases” (GW Pharma Limited, priority 2011, dated 2016):
# Entries after “also recorded” stand apart in the source; their conditions may differ.
# What was measured:
# [1] = tested on: LPS-stimulated nitrite levels in mouse peritoneal macrophages; experiment: Nitrites measurement in medium of LPS-stimulated macrophages; type: cell-based; details: non-cytotoxic concentrations (0.1-10 pM), 30 min pre-treatment, then LPS 1 μg/ml 18 hours, FIG. 3 and 4
# Procedure: (§1) Briefly, to evoke the production of peritoneal exudates rich in macrophages, mice were injected intraperitoneally (i.p.) with 1 ml of 10% sterile thioglycollate (Sigma, Milan, Italy). After 4 days, mice were euthanized and peritoneal macrophages were collected and seeded in appropriate plates for performing in vitro experiments.
# Peritoneal macrophages were cultured in Dulbecco's modified Eagle's medium (DMEM) supplemented with 10% fetal bovine serum. […] The response in macrophages was measured after 18 h LPS incubation.
# Nitrites, stable metabolites of NO, were measured in macrophages medium as previously described. Macrophages (5×10^5 cells per well seeded in a 24-well plate) were incubated with test article ([…]) for 30 min, and subsequently with LPS (1 μg/ml) for 18 hours.
# The test articles were used at non-cytotoxic concentrations as a pre-treatment for 30 min before LPS-stimulation.
# [2] = tested on: DNBS-induced colitis mice; experiment: DNBS-induced colitis, body weight and colon weight/colon length ratio; type: in vivo, mouse
# Procedure: (§2) Cannabigerol (CBG), cannabichromene (CBC) and tetrahydrocannabivarin (THCV) were dissolved in ethanol/Tween20/saline. Animals were placed in groups and administered with test article (60 μl per mouse) via IP once daily. Treatment started 3 days before DNBS administration for the preventative treatment experiments or 1 day after DNBS administration for the curative treatments. Test article was administered daily until the sacrifice of the animals, 3 days after DNBS treatment. THCV was only tested for a curative effect.
# (§3) Colitis was induced in mice by the intra-colonic administration of DNBS. Briefly, mice were anesthetized and DNBS (8 mg/mouse) was inserted into the colon using a polyethylene catheter (1 mm in diameter) via the rectum (4.5 cm from the anus). Three days after DNBS administration, all animals were euthanized by asphyxiation with CO2. The abdomen was opened by a midline incision and the colon removed, isolated from surrounding tissues, opened along the anti-mesenteric border, rinsed, weighed, length measured, and processed for evaluations.
# The colon weight/colon length ratio activity were determined as index of inflammation. Body weight was also evaluated.
# [3] = tested on: inducible nitric oxide synthase (iNOS); experiment: iNOS expression in full-thickness colons by western blot, DNBS-induced colitis; type: in vivo, mouse; details: DNBS-treated mice, FIG. 11
# Procedure: as §2, §3
# iNOS expression was measured in full-thickness colons from control and DNBS-treated mice by western blot analysis.
# [4] = tested on: mouse peritoneal macrophages; experiment: Cytotoxicity assays (MTT cell respiration and neutral red uptake); type: cell-based; details: isolated phytocannabinoids, 24 hours incubation, highest 10 μM concentration, FIG. 1
# Procedure: as §1, with “Peritoneal macrophages were obtained from mice as previously described by Rossi et al. (Rossi et al. 2010). Briefly,” for “Briefly,”
# Peritoneal macrophages were cultured in Dulbecco's modified Eagle's medium (DMEM) supplemented with 10% fetal bovine serum. The inflammatory response in peritoneal macrophages was induced by lipopolysaccharide (LPS) from Escherichia coli serotype 0111:B4 (1 μg/ml). The response in macrophages was measured after 18 h LPS incubation.
# Cell viability was assessed by evaluating cell respiration as well as neutral red (NR) uptake. Cell respiration was assessed by the mitochondrial-dependent reduction of 3-(4,5-dimethylthiazol-2-yl)-2,5-diphenyltetrazolium bromide (MTT) to formazan. After incubation with one of the phytocannabinoids for 24 hours, macrophages (1×10^5 cells per well seeded in a 96-well plate) were incubated with MTT (250 μg/ml) for 1 h.
# The extent of reduction of MTT to formazan was quantitated by measuring the optical density at 490 nm (iMark™ microplate assorbance reader, BioRad). […]
# [5] = tested on: DNBS model of intestinal bowel disease in mice; details: cited from earlier work
# [6] = post-treatment (curative), IP once daily from 1 day after DNBS
# [7] = pre-treatment (preventative), IP once daily from 3 days before DNBS
# [8] = treatment after induction of colitis (curative), IP once daily from 1 day after DNBS
Compound,LPS-stimulated nitrite levels [1],"colon weight:colon length ratio [2, 6]","body weight (decrease associated with the inflammatory response) [2, 7]","colon weight:colon length ratio [2, 7]","body weight (decrease associated with the inflammatory response) [2, 8]",level of expression of iNOS in colonic tissues [3],cytotoxicity / cell viability [4],anti-inflammatory effect in DNBS model [5]
"C=C(C)[C@@H]1CCC(C)=C[C@H]1c1c(O)cc(CCC)cc1O [CBDV, Cannabidivarin]",reduce LPS-stimulated nitrite production,–,–,–,–,–,–,–
"CCCCCc1cc(O)c(C/C=C(\C)CCC=C(C)C)c(O)c1 [CBG, Cannabigerol]",significantly reduced; also recorded: reduce LPS-stimulated nitrite production,significant (p<0.05) reduction,highly statistically significant (p<0.001) prevention of the decrease in bodyweight,significant (p<0.05) reduction,did however not result in a decrease in body weight,statistically significantly (p<0.05) lower,–,–
"CCCCCc1cc(O)c2c(c1)OC(C)(CCC=C(C)C)C=C2 (centres unmarked) [CBC, Cannabichromene]",reduce LPS-stimulated nitrite production,decrease in the colon weight:length ration however this was not as statistically significant,significant (p<0.05) prevention of the decrease in bodyweight,significant (p<0.05) reduction,did not however result in a decrease in body weight,did not show a reduction,significantly reduced cell viability,–
"C=C(C)[C@@H]1CCC(C)=C[C@H]1c1c(O)cc(CCCCC)cc1O [CBD, Cannabidiol]",–,–,–,–,–,–,–,anti-inflammatory effect
"CCCc1cc(O)c2c(c1)OC(C)(C)[C@@H]1CCC(C)=C[C@@H]21 [THCV, Tetrahydrocannabivarin]",significantly reduced; also recorded: reduce LPS-stimulated nitrite production,significant (p<0.05) reduction,–,–,"prevention of the decrease in bodyweight that is associated with the inflammatory response, however this decrease was not statistically significant",statistically significantly (p<0.001) lower,significantly reduced cell viability,–
